Laboratory results reported in US7371749B2, “Benzothiazole derivatives” (Hoffmann-La Roche Inc., priority 2004, dated 2008).

Tests used:
[1] = target: T1, human adenosine A2A receptor (Homo sapiens, UniProt P29274); test: [3H]-SCH-58261 binding assay on human adenosine A2A receptor expressed in CHO cell membranes (SPA); details: displacement of [3H]-SCH-58261 (1 nM); recombinant receptor in CHO membranes; Ki by Cheng-Prussoff equation; read-out: hA2 (pKi) (converted)
T1 construct: expressed in transfected cells; host or cells: CHO cells, semliki forest virus expression system; membrane preparation
Experimental: Human Adenosine A2A Receptor
The human adenosine A2A receptor was recombinantly expressed in Chinese hamster ovary (CHO) cells using the semliki forest virus expression system. Cells were harvested, washed twice by centrifugation, homogenized and again washed by centrifugation. The final washed membrane pellet was suspended in a Tris (50 mM) buffer containing 120 mM NaCl, 5 mM KCl, 2 mM CaCl2 and 10 mM MgCl2 (pH 7.4) (buffer A). The [^3H]-SCH-58261 (Dionisotti et al., 1997, Br J Pharmacol 121, 353; 1 nM) binding assay was carried out in 96-well plates in the presence of 2.5 μg of membrane protein, 0.5 mg of Ysi-poly-1-lysine SPA beads and 0.1 U adenosine deaminase in a final volume of 200 μl of buffer A. Non-specific binding was defined using xanthine amine congener (XAC; 2 μM). Compounds were tested at 10 concentrations from 10 μM-0.3 nM. All assays were conducted in duplicate and repeated at least two times. Assay plates were incubated for 1 hour at room temperature before centrifugation and then bound ligand determined using a Packard Topcount scintillation counter. IC50 values were calculated using a non-linear curve fitting program and Ki values calculated using the Cheng-Prussoff equation.

T1 sequence (P29274 whole entry): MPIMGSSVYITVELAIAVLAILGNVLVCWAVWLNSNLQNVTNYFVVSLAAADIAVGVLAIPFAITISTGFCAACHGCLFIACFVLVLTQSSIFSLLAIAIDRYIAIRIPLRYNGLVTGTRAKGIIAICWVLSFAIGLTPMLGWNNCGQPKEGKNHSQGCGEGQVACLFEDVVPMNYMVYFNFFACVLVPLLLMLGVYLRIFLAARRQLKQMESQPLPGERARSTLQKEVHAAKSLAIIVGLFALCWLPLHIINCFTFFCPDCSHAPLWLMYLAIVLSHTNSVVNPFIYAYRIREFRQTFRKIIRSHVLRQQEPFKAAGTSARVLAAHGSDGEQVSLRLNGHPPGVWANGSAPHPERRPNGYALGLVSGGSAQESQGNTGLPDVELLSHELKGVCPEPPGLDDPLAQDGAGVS

Row | Structure (SMILES) | Ki [1] | melting point
1 | COc1ccc(N2CCOCC2)c2sc(NC(=O)c3cnn(CCN4CCCC4)c3)nc12 [Example 5, 1-(2-Pyrrolidin-1-yl-ethyl)-1H-pyrazole-4-carboxylic acid (4-methoxy-7-morpholin-4-yl-benzothiazol-2-yl)-amide] | 0.794 nM | 190 to 192 °C
2 | COCc1ncc(C(=O)Nc2nc3c(OC)ccc(N4CCOCC4)c3s2)n1C [Example 9, 2-Methoxymethyl-3-methyl-3H-imidazole-4-carboxylic acid (4-methoxy-7-morpholin-4-yl-benzothiazol-2-yl)-amide] | 0.501 nM | 242 to 245 °C
3 | COCCN(C)Cc1ncc(C(=O)Nc2nc3c(OC)ccc(N4CCOCC4)c3s2)n1C [Example 1, 2-{[(2-Methoxy-ethyl)-methyl-amino]-methyl}-3-methyl-3H-imidazole-4-carboxylic acid (4-methoxy-7-morpholin-4-yl-benzothiazol-2-yl)-amide] | 0.501 nM | 176 to 178 °C
4 | COc1ccc(N2CCOCC2)c2sc(NC(=O)c3cnc(CN4CCCC4)n3C)nc12 [Example 4, 3-Methyl-2-pyrrolidin-1-ylmethyl-3H-imidazole-4-carboxylic acid (4-methoxy-7-morpholin-4-yl-benzothiazol-2-yl)-amide] | 1.58 nM | 255 °C
5 | COc1ccc(N2CCOCC2)c2sc(NC(=O)c3cnc(CN(C)C)n3C)nc12 [Example 2, 2-Dimethylaminomethyl-3-methyl-3H-imidazole-4-carboxylic acid (4-methoxy-7-morpholin-4-yl-benzothiazol-2-yl)-amide] | 0.631 nM | 229 to 231 °C
6 | COc1ccc(N2CCOCC2)c2sc(NC(=O)c3cnn(CCN(C)C)c3)nc12 [Example 6, 1-(2-Dimethylamino-ethyl)-1H-pyrazole-4-carboxylic acid (4-methoxy-7-morpholin-4-yl-benzothiazol-2-yl)-amide] | 0.794 nM | 203 to 205 °C
7 | COc1ccc(N2CCOCC2)c2sc(NC(=O)c3cnc(CN4CCOCC4)n3C)nc12 [Example 3, 3-Methyl-2-morpholin-4-ylmethyl-3H-imidazole-4-carboxylic acid (4-methoxy-7-morpholin-4-yl-benzothiazol-2-yl)-amide] | 0.631 nM | 244 to 246 °C
8 | COc1ccc(N2CCOCC2)c2sc(NC(=O)c3cnn(CCN4CCOCC4)c3)nc12 [Example 7, 1-(2-Morpholin-4-yl-ethyl)-1H-pyrazole-4-carboxylic acid (4-methoxy-7-morpholin-4-yl-benzothiazol-2-yl)-amide] | 1 nM | 204 to 207 °C
9 | COCCn1cc(C(=O)Nc2nc3c(OC)ccc(N4CCOCC4)c3s2)cn1 [Example 8, 1-(2-Methoxy-ethyl)-1H-pyrazole-4-carboxylic acid (4-methoxy-7-morpholin-4-yl-benzothiazol-2-yl)-amide] | 0.398 nM | 
